Reference: ChEMBL document CHEMBL1127546, “New thiol inhibitors of neutral endopeptidase EC 3.4.24.11: synthesis and enzyme active-site recognition” (J Med Chem, 1994)

Experiments:
Neprilysin [1] = target: T1, Neprilysin (Oryctolagus cuniculus, UniProt P08049); assay: Tested for inhibitory potency against neutral endopeptidase (NEP)
T1 sequence (P08049 whole entry): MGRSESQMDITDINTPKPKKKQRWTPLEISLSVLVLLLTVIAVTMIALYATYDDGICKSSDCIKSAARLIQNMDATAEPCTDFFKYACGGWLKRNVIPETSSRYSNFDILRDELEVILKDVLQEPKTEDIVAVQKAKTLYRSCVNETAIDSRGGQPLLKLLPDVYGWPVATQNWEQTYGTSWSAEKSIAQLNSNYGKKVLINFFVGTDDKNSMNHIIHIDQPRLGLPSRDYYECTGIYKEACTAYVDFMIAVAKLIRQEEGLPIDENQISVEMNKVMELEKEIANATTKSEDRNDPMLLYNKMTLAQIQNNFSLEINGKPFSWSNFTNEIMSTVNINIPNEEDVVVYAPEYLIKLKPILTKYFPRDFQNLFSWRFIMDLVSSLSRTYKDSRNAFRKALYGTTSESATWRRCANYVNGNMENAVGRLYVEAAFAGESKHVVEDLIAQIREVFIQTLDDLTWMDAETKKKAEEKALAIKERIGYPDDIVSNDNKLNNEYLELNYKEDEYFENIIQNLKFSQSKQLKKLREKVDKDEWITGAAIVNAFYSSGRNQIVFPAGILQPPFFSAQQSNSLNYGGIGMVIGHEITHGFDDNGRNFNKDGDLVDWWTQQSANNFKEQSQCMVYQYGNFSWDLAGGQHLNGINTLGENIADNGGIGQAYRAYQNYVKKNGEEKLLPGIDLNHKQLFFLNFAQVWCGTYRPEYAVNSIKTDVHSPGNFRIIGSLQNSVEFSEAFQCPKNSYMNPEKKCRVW

[2] = target: T2, Angiotensin-converting enzyme (Homo sapiens, UniProt P12821); assay: Tested for inhibitory potency against Angiotensin I Converting Enzyme
T2 sequence (P12821 whole entry): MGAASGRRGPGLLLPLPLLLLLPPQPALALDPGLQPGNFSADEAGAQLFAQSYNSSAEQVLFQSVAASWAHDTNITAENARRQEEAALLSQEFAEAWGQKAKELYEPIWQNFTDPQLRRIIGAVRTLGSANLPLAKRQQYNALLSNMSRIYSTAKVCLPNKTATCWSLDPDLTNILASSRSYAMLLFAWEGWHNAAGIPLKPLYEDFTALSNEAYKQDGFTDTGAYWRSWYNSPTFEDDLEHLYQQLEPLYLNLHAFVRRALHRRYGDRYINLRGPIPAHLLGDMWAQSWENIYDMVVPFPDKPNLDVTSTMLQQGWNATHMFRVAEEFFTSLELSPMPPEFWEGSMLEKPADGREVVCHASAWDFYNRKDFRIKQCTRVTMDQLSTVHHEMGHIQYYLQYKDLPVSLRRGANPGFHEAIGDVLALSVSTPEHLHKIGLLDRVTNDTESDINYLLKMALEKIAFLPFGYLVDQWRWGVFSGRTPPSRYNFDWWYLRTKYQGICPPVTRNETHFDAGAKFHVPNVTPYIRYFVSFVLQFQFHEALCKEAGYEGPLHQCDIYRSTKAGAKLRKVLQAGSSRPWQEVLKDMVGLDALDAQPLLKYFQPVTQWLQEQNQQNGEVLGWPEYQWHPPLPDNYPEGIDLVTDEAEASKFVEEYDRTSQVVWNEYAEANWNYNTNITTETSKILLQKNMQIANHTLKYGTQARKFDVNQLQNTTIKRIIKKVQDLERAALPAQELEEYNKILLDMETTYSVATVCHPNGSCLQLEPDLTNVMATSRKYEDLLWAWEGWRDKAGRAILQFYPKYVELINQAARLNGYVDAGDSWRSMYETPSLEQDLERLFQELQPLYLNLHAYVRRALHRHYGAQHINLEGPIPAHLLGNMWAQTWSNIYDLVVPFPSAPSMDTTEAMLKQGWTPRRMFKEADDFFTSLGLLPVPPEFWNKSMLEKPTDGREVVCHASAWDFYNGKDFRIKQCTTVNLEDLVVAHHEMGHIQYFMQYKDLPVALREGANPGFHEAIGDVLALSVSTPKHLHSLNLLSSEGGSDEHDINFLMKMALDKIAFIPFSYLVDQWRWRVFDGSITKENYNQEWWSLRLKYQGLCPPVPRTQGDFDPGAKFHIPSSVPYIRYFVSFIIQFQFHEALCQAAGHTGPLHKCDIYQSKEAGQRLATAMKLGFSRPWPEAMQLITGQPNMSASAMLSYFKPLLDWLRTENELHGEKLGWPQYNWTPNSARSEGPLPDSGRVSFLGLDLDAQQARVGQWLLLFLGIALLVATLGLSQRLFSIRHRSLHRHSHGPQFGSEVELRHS

Thermolysin = target: T3, Thermolysin (Bacillus thermoproteolyticus, UniProt P00800); assay: Tested for binding affinity against Thermolysin; parameters: species or system Bacteria
T3 sequence (P00800 whole entry): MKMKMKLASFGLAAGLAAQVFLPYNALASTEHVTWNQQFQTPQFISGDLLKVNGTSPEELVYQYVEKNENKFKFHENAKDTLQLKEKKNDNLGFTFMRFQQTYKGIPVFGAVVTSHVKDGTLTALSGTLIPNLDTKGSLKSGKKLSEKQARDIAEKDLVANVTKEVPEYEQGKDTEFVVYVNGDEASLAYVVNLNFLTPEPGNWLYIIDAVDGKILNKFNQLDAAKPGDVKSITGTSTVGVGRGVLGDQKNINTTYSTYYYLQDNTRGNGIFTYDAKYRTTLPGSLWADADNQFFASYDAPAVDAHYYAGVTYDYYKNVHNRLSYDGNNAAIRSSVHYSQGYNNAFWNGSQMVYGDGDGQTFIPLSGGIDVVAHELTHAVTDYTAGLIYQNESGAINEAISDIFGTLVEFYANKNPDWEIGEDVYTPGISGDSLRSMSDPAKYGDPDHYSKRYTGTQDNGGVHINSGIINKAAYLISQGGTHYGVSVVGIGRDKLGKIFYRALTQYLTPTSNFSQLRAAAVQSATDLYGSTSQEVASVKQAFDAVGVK

[3] = target: T2, Angiotensin-converting enzyme; assay: Tested for inhibitory potency against Angiotensin I converting enzyme
Neprilysin [4] = target: T1, Neprilysin; assay: Tested for binding affinity against neutral endopeptidase (NEP)

SMILES: O=C(O)C1CCCN1C(=O)C(Cc1ccccc1)CC(S)Cc1ccccc1 (stereo unspecified)
- IC50 (Neprilysin [1]): 0.32 µM
- IC50 [2]: 3.6 µM

SMILES: CCC(C)C1CC(Cc2ccccc2)SC1=O (stereo unspecified)
- IC50 (Neprilysin [1]): 0.22 µM
- IC50 [2]: 2.3 µM

SMILES: CCC(C)C(S)CC(Cc1ccccc1)C(=O)NC(Cc1ccc(O)cc1)C(N)=O (stereo unspecified)
- IC50 (Neprilysin [1]): 0.35 µM
- IC50 [2]: 3.5 µM

SMILES: CCC(C)C(S)CC(Cc1ccccc1)C(=O)N[C@H](Cc1ccc(O)cc1)C(=O)O (stereo partly specified)
- IC50 (Neprilysin [1]): 0.32 µM
- IC50 [2]: 8 µM

SMILES: CCC(C)C(CC(S)CCc1ccccc1)C(=O)NC(Cc1ccc(O)cc1)C(=O)O (stereo unspecified)
- IC50 (Neprilysin [1]): 0.26 µM
- IC50 [2]: 2.9 µM

SMILES: O=C(O)CCNC(=O)C(Cc1ccccc1)CC(S)Cc1ccccc1 (stereo unspecified)
- IC50 (Neprilysin [1]): 0.29 µM
- IC50 [2]: 3.5 µM

SMILES: CC(C)C[C@H](NC(CCc1ccccc1)C(=O)O)C(=O)N[C@@H](Cc1c[nH]c2ccccc12)C(=O)O (stereo partly specified)
- Ki (Thermolysin): 0.05 µM

SMILES: CCC(C)C(CC(S)Cc1ccccc1)C(=O)O (stereo unspecified)
- IC50 (Neprilysin [1]): 0.25 µM
- IC50 [2]: 4 µM

SMILES: CC(NC(=O)C(Cc1ccccc1)CC(S)Cc1ccccc1)C(=O)O (stereo unspecified)
- IC50 [3]: 3.8 µM
- IC50 (Neprilysin [1]): 0.19 µM

SMILES: CC(C)CC(S)C(Cc1ccccc1)C(=O)NC(C)C(=O)O (stereo unspecified)
- IC50 (Neprilysin [1]): 0.0036 µM
- IC50 (Thermolysin): 4 µM

SMILES: O=C(O)C(CCc1ccccc1)N[C@@H](Cc1ccccc1)C(=O)NC[C@H](O)C(=O)O (stereo partly specified)
- Ki (Neprilysin [4]): 0.011 µM

SMILES: O=C(O)CCNC(=O)C(Cc1ccccc1)CC(Cc1ccccc1)C(=O)O (stereo unspecified)
- IC50 (Neprilysin [1]): 0.018 µM

SMILES: CC(NC(=O)C(Cc1ccccc1)CC(S)c1ccccc1)C(=O)O (stereo unspecified)
- IC50 (Neprilysin [1]): 0.13 µM
- IC50 [2]: 3.5 µM

SMILES: CCC(C)C(CC(S)Cc1ccccc1)C(=O)N1CCCC1C(=O)O (stereo unspecified)
- IC50 (Neprilysin [1]): 0.35 µM
- IC50 [2]: 2.8 µM

SMILES: CCC(C)C(S)CC(C(=O)NC(Cc1ccc(O)cc1)C(N)=O)C(C)CC (stereo unspecified)
- IC50 (Neprilysin [1]): 0.36 µM
- IC50 [2]: 4 µM

SMILES: CCC(C)C(CC(S)Cc1ccccc1)C(=O)NC(Cc1ccc(O)cc1)C(=O)O (stereo unspecified)
- IC50 (Neprilysin [1]): 0.22 µM
- IC50 [2]: 0.8 µM

SMILES: CCC(C)C(S)CC(Cc1ccccc1)C(=O)N[C@@H](Cc1ccc(O)cc1)C(=O)O (stereo partly specified)
- IC50 (Neprilysin [1]): 0.27 µM
- IC50 [2]: 4.4 µM

SMILES: O=C(O)CNC(=O)[C@@H](CS)Cc1ccccc1 [THIORPHAN]
- IC50 (Thermolysin): 1.8 µM

SMILES: O=C(NC(Cc1ccc(O)cc1)C(=O)O)C(Cc1ccccc1)CC(S)Cc1ccccc1 (stereo unspecified)
- IC50 (Neprilysin [1]): 0.15 µM
- IC50 [2]: 2.4 µM

SMILES: CCC(C)C(S)CC(C(=O)NC(Cc1ccc(O)cc1)C(=O)O)C(C)CC (stereo unspecified)
- IC50 (Neprilysin [1]): 0.38 µM
- IC50 [2]: 3.4 µM
